Laboratory results from US7456154B2 (priority 2001, dated 2008).

System: MG patients
Assay: Phase Ib clinical trial of oral hEN101 in MG patients (QMG score)
Assay type: in vivo, human
Details: for Decrease in mean total QMG score from baseline: baseline mean total score 13.2
Method: Protocol for Phase Ib Clinical Trial of MG patients using hEN101: Patients were hospitalized and pyridostigmine was discontinued for 12-18 hours before EN101 testing. Assessment of MG status was performed first at entry, then after pyridostigmine stoppage, and regularly after EN101 treatment using a Quantitative MG (QMG) score. Escalating oral doses of EN101 (10-150 μg/kg) were given in the first day (day 1) followed by a daily dose of 500 μg/kg for 3 days (days 2-4). Days 5 and 6 were washout period without pyridostigmine, and restitution of pyridostigmine occurred when it became necessary. Patients were monitored for 1 month thereafter, with three visits as out-patients.
The following parameters were used as inclusion criteria: • Class II and above, according to MGFA classification (myasthenia gravis standard clinical classification of the disease severity score); • Age 18-70; • Seropositive for AChR antibodies; • Patients under pyridostigmine (180 mg/day) treatment without concomitant immunosuppressants; • Stable for 3 months, with no PE (plasma exchange) for 6 months; • No other major or active diseases.
Evaluation of the MG status of each patient was based on the following parameters: • (a) QMG scoring (maximum value of 9), based on the measurements of: • Fatigue in each limb (4); • Fatigue of the neck (1); • Swallowing rate (1); • Power in the hands (2); • Respirometry (1). • These measurements were taken daily, 4 times per day, and averaged for days 2-6. • (b) Patient's subjective report; • (c) Vital signs, clinical chemistry, hematology, urinalysis, ECG and physical examination, recorded daily.
16 patients with stable generalized MG requiring constant AChE inhibitors (pyridostigmine) for daily function were recruited, after approval by human ethics committees of the respective hospitals involved in the present trial (Hadassah Medical Center, Jerusalem, Israel and Greater Manchester Neurosciences Center, Hope Hospital, Salford, England).

5′-CTGCCACGTTCTCCTGCACC-3′ [hEN101]
Decrease in mean total QMG score from baseline (day 2): 3.0 | Decrease in mean total QMG score from baseline (day 3): 4.8 | Decrease in mean total QMG score from baseline (day 4): 5.7 | Decrease in mean total QMG score from baseline (day 5): 5.5 | Decrease in mean total QMG score from baseline (day 6): 6.0 | Vital signs, chemical chemistry, hematology, urinalysis, ECG and physical examination (experimental period and month following discharge): remained unchanged | Cholinergic side effects (human, in vivo): not reported | Duration of improved scores following the final dose (human, in vivo): up to 72 hours | Serious adverse effects (human, in vivo): No serious adverse effects were observed | Patients with clear symptomatic improvement (oral, 10-150 μg/kg day 1, 500 μg/kg days 2-4): 15 out of 16
